# Measured values as given in the supplement of paper PMC10307832.
# How the values were obtained:
# Assay in all cases: relative viability (nuclei count vs DMSO), 5 days (fraction); higher = more cells survive
# Olaparib + Palbociclib = compound: O=C(c1cc(Cc2n[nH]c(=O)c3ccccc23)ccc1F)N1CCN(C(=O)C2CC2)CC1 [Olaparib] + CC(=O)c1c(C)c2cnc(Nc3ccc(N4CCNCC4)cn3)nc2n(C2CCCC2)c1=O [Palbociclib] (partner 0.5 µM)
# Method in brief: (§1)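 Lung cancer cell lines were pin-tool dosed in 1536-well plates on the day after seeding, with either a lone drug or a fixed anchor-drug dose plus five library-drug doses (not always all listed) in √10 steps. Nuclei were counted on 4× images after 5 days. Relative viability is the ratio of treated-well to vehicle-well nuclei counts, with each value a median of duplicate plates.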
# Olaparib + Bortezomib = compound: O=C(c1cc(Cc2n[nH]c(=O)c3ccccc23)ccc1F)N1CCN(C(=O)C2CC2)CC1 [Olaparib] + CC(C)C[C@H](NC(=O)[C@H](Cc1ccccc1)NC(=O)c1cnccn1)B(O)O [Bortezomib] (partner 0.002 µM)
# Method in brief: as §1
# Olaparib + Tozasertib = compound: O=C(c1cc(Cc2n[nH]c(=O)c3ccccc23)ccc1F)N1CCN(C(=O)C2CC2)CC1 [Olaparib] + Cc1cc(Nc2cc(N3CCN(C)CC3)nc(Sc3ccc(NC(=O)C4CC4)cc3)n2)n[nH]1 [Tozasertib] (partner 0.1 µM)
# Method in brief: as §1
# Carfilzomib + OSI-027 = compound: CC(C)C[C@H](NC(=O)[C@H](CCc1ccccc1)NC(=O)CN1CCOCC1)C(=O)N[C@@H](Cc1ccccc1)C(=O)N[C@@H](CC(C)C)C(=O)[C@@]1(C)CO1 [Carfilzomib] + COc1cccc2cc(-c3nc([C@H]4CC[C@H](C(=O)O)CC4)n4ncnc(N)c34)[nH]c12 [OSI-027] (partner 0.5 µM)
# Method in brief: as §1
Cell Line,relative viability (Olaparib + Palbociclib; first compound 0.08 µM),relative viability (Olaparib + Palbociclib; first compound 0.253 µM),relative viability (Olaparib + Palbociclib; first compound 2.53 µM),relative viability (Olaparib + Palbociclib; first compound 8 µM),relative viability (Olaparib + Bortezomib; first compound 0.08 µM),relative viability (Olaparib + Bortezomib; first compound 0.253 µM),relative viability (Olaparib + Bortezomib; first compound 2.53 µM),relative viability (Olaparib + Bortezomib; first compound 8 µM),relative viability (Olaparib + Tozasertib; first compound 0.08 µM),relative viability (Olaparib + Tozasertib; first compound 0.253 µM),relative viability (Olaparib + Tozasertib; first compound 2.53 µM),relative viability (Olaparib + Tozasertib; first compound 8 µM),relative viability (Carfilzomib + OSI-027; first compound 0.001 µM),relative viability (Carfilzomib + OSI-027; first compound 0.003162 µM),relative viability (Carfilzomib + OSI-027; first compound 0.01 µM),relative viability (Carfilzomib + OSI-027; first compound 0.03162 µM),relative viability (Carfilzomib + OSI-027; first compound 0.1 µM)
NCI-H1650,0.478,0.324,0.331,0.335,0.265,0.196,0.232,0.197,0.475,0.391,0.372,0.361,0.656,0.496,0.162,0.142,0.198
A-427,0.512,0.488,0.503,0.415,1.03,0.96,0.877,0.673,0.196,0.209,0.188,0.163,0.47,0.542,0.395,0.145,0.132
CAL-12T,0.0401,0.407,0.329,0.479,1.16,0.842,1.04,1.03,0.345,0.259,0.281,0.235,0.667,0.708,0.85,0.131,0.131
EPLC-272H,0.427,0.298,0.339,0.318,1.1,0.819,0.965,0.848,0.193,0.234,0.312,0.172,0.284,0.291,0.248,0.119,0.0723
NCI-H23,0.586,0.542,0.475,0.5,1.28,0.717,0.581,0.482,0.391,0.335,0.397,0.232,0.592,0.887,0.716,0.145,0.144
NCI-H1563,–,–,–,–,0.876,0.881,0.896,0.692,–,–,–,–,0.775,0.71,0.797,0.705,0.586
H3255,0.32,0.315,0.336,0.306,0.935,0.728,0.703,0.728,0.704,0.602,0.82,0.496,0.581,0.536,0.65,0.584,0.237
NCI-H1355,0.364,0.422,0.407,0.414,1.19,1.14,1.15,1.12,0.697,0.552,0.562,0.444,0.411,0.495,0.493,0.311,0.163
UMC-11,0.286,–,0.317,0.31,0.98,0.648,0.538,0.325,0.231,0.208,0.235,0.253,0.503,0.474,0.496,0.426,0.211
NCI-H1395,0.649,0.611,0.6,0.499,–,–,–,–,0.816,0.657,0.598,0.548,0.526,0.734,0.642,0.5,0.309
EMC-BAC-2,0.518,0.512,0.517,0.472,1.09,1.04,1.07,0.967,0.284,0.296,0.279,0.262,0.378,0.448,0.409,0.242,0.197
HCC-44,0.998,0.884,0.943,0.969,0.915,0.873,0.952,0.893,1.27,0.857,0.871,1.06,0.48,0.564,0.574,0.338,0.217
Calu-6,–,–,–,–,1.13,0.959,0.796,0.777,–,–,–,–,–,–,–,–,–
NCI-H2342,0.532,0.503,0.471,0.474,–,–,–,–,0.458,0.552,0.479,0.416,0.663,0.621,0.723,0.632,0.495
NCI-H596,–,–,–,–,1.3,0.878,0.865,0.794,0.962,0.707,0.813,0.617,0.657,1,0.684,0.372,0.149
NCI-H522,1.14,0.859,0.87,0.889,–,–,–,–,0.513,0.541,0.593,0.621,0.585,0.731,0.634,0.461,0.456
NCI-H1623,–,–,–,–,–,–,–,–,0.474,0.446,0.493,0.413,0.449,0.462,0.46,0.374,0.312
SW 900,0.606,0.492,0.595,0.476,–,–,–,–,0.516,0.395,0.536,0.483,0.451,0.362,0.114,0.0786,0.135
NCI-H1299,–,–,–,–,1.07,0.97,1.04,0.968,–,–,–,–,–,–,–,–,–
LK-2,0.697,0.723,0.888,0.697,–,–,–,–,0.161,0.178,0.164,0.171,0.223,0.201,0.166,0.18,0.181
NCI-H358,0.124,0.137,0.125,0.14,–,–,–,–,0.101,0.119,0.106,0.116,0.638,0.834,0.888,0.0702,0.0685
NCI-H1944,0.34,0.335,0.316,0.271,–,–,–,–,0.217,0.198,0.228,0.231,0.389,0.489,0.474,0.46,0.173
IA-LM,–,–,–,–,0.743,0.739,0.745,0.659,–,–,–,–,–,–,–,–,–
EBC-1,–,–,–,–,0.654,0.541,0.523,0.472,–,–,–,–,–,–,–,–,–
NCI-H1703,–,–,–,–,0.367,0.301,0.445,0.417,–,–,–,–,–,–,–,–,–
